Assay results taken from BigSolDB 2.1.

Cc1c(OCC(F)(F)F)ccnc1CS(=O)c1nc2ccccc2[nH]1 (stereo not drawn)
solubility (mole fraction)
Settings	278.15 K	283.15 K	288.15 K	293.15 K	298.15 K	303.15 K	308.15 K	313.15 K	318.15 K
in acetone	0.0174	0.0197	0.0221	0.0256	0.0287	0.0337	0.0398	0.0461	0.053
in acetonitrile	0.00324	0.00406	0.00516	0.00642	0.00805	0.01	0.0124	0.015	0.0186
in ethanol	0.00976	0.0114	0.0145	0.0179	0.0221	0.0274	0.0327	0.0402	0.0487
in ethyl acetate	0.00415	0.00512	0.00637	0.00799	0.00962	0.0118	0.0145	0.0175	0.0216
in isobutanol	0.00434	0.00534	0.00657	0.00803	0.0098	0.012	0.0148	0.0179	0.0218
in isopropanol	0.00417	0.00469	0.00569	0.00708	0.00879	0.0109	0.0136	0.0168	0.0204
in methanol	0.022	0.0271	0.0331	0.0428	0.0532	0.0653	0.0803	0.101	0.125
in methyl acetate	0.00633	0.00729	0.00849	0.0105	0.0131	0.0158	0.02	0.0245	0.03
in n-butanol	0.00564	0.00701	0.00832	0.0105	0.0127	0.016	0.0196	0.0242	0.0296
in n-butyl acetate	0.00168	0.00206	0.00259	0.00329	0.00406	0.00505	0.0063	0.00785	0.00945
in n-propanol	0.00803	0.00912	0.0108	0.0132	0.0157	0.019	0.0233	0.028	0.0335
in n-propyl acetate	0.00227	0.00268	0.00342	0.00417	0.00522	0.00654	0.00831	0.0101	0.0127
